Common to all, as to experiment: Broth dilution MIC
Holding throughout (assay type): cell-based
Common to all, as to conditions: Mueller-Hinton broth, 18 hours at 35° C.
(Dilution methods test growth across graded concentrations, often in twofold steps.)

In one assay the test system is CNS GC 4537. On the procedure:
(§1) The in vitro antibacterial activity of AA-896-A1, AA-896-A2, AA-896-A3, AA-896-A4, AA-896-A5, AA-896-B1, AA-896-B2, AA-896-B3, AA-896-B4, AA-896-B5, AA-896-B6, AA-896-B7, AA-896-C1, AA-896-C2, AA-896-C3, AA-896-C4, AA-896-D1, AA896-D2 and AA-896-D3 is determined against a spectrum of Gram-positive and Gram-negative bacteria by a standard broth dilution method. Serial dilution of the compounds are made in Mueller-Hinton broth and inoculated with a bacterial suspension. The lowest concentration of compound that inhibited the growth of a bacterial strain after 18 hours of incubation at 35° C. is reported as the minimal inhibitory concentration (MIC) for that strain.

For the next assay, the system named is CNS GC 4538. The method, then: as §1
For another assay, the system named is CNS GC 4547. The method, then:
as §1

The subject of another assay is E. cloacae GC 3783. On the procedure:
as §1

A further assay deals with E. coli GC 2203. On the procedure: as §1
In a further assay the test system is E. coli GC 3226. The method, then: as §1
Another assay concerns E. coli GC 4559. The method, then:
as §1

In another assay the test system is E. coli GC 4560. On the procedure: as §1
In the next assay the test system is E. faecalis GC 242. On the procedure:
as §1

In the next assay the test system is E. faecalis GC 4555. The method, then:
as §1

The test system of another assay is E. faecalis GC 842. On the procedure:
as §1

The next assay concerns K. pneumoniae GC 4534. On the procedure:
as §1

The subject of another assay is M. morganii GC 4531. The method, then: as §1
The subject of another assay is P. aeruginosa GC 2214. On the procedure:
as §1

The test system of the next assay is P. aeruginosa GC 4532. The method, then:
as §1

Another assay has as its system P. rettgeri GC 4530. The method, then:
as §1

The test system of the next assay is S. aureus GC 1131. The method, then: as §1
In another assay the test system is S. aureus GC 2216. On the procedure:
as §1

Another assay deals with S. aureus GC 4536. On the procedure: as §1
The test system of a further assay is S. marcescens GC 4077. On the procedure:
as §1

As for `CC(C)CC(NC(=O)C(NC(=O)NC(C(=O)O)C(C)C)C1CCNC(=N)N1)C(=O)NCCCNC(C(=O)O)C(OC1OC(CN)C(O)C1O)C1OC(n2ccc(=O)[nH]c2=O)C(O)C1O` [AA-896-D2, 5-O-[5-Amino-5-deoxy-β-D-ribofuranosyl]-6-[[3-[2-[2-[[(1-carboxy-2-methylpropyl)-carbamoyl]amino]-2-(hexahydro-2-iminopyrimidin-4-yl)acetamido]-4-methylpentanamido]-propyl]amino]-1,6-dideoxy-1-(3,4-dihydro-2,4-dioxopyrimidin-1(2H)-yl)-β-D-heptofuran-uronic acid], the “Antimicrobial Activity (MIC)” value with CNS GC 4537 is above 32 µg/mL; in the assay with CNS GC 4538, above 32 µg/mL; in the assay with CNS GC 4547, above 32 µg/mL; in the assay with E. cloacae GC 3783, 16 µg/mL; with E. coli GC 2203, 16 µg/mL; with E. coli GC 3226, 16 µg/mL. The “Antimicrobial Activity (MIC)” value in the assay with E. coli GC 4559 is 32 µg/mL; in the assay on E. coli GC 4560 it was 0.25 µg/mL; in the assay on E. faecalis GC 242 it was above 32 µg/mL; in the assay with E. faecalis GC 4555, above 32 µg/mL; with E. faecalis GC 842, above 32 µg/mL; with K. pneumoniae GC 4534, above 32 µg/mL. Besides, the “Antimicrobial Activity (MIC)” value with M. morganii GC 4531 is above 32 µg/mL; with P. aeruginosa GC 2214 it was 32 µg/mL; with P. aeruginosa GC 4532 it was 32 µg/mL; in the assay with P. rettgeri GC 4530, above 32 µg/mL; with S. aureus GC 1131 it was above 32 µg/mL; in the assay on S. aureus GC 2216 it was above 32 µg/mL. Also, the “Antimicrobial Activity (MIC)” value in the assay with S. aureus GC 4536 and in the assay with S. marcescens GC 4077 was above 32 µg/mL throughout.
With `COC1C(OC(C(NCCCNC(=O)C(NC(=O)C(NC(=O)NC(C(=O)O)C(C)C)C2CCNC(=N)N2)C(OC(=O)CCCCCC(C)C)C(C)C)C(=O)O)C2OC(n3ccc(=O)[nH]c3=O)C(O)C2O)OC(CN)C1O` [AA-896-B4, 5-O-[5-Amino-5-deoxy-2-O-methyl-β-D-ribofuranosyl]-6-[[3-[2-[2-[[(1-carboxy-2-methyl-propyl)carbamoyl]amino]-2-(hexahydro-2-iminopyrimidin-4-yl)acetamido]-4-methyl-3-[(7-methyloctanoyl)oxy]pentanamido]propyl]amino]-1,6-dideoxy-1-(3,4-dihydro-2,4-dioxopyrimidin-1(2H)-yl)-β-D-heptofuranuronic acid], the “Antimicrobial Activity (MIC)” value in the assay on CNS GC 4537 was 64 µg/mL; in the assay with CNS GC 4538 it was 32 µg/mL; in the assay with CNS GC 4547, above 64 µg/mL; with E. cloacae GC 3783, 8 µg/mL; in the assay with E. coli GC 2203, 32 µg/mL; in the assay with E. coli GC 3226, 64 µg/mL. The “Antimicrobial Activity (MIC)” value is 8 µg/mL with E. coli GC 4559; “<=0.06 μg/ml” with E. coli GC 4560; above 64 µg/mL in the assay on E. faecalis GC 242; 64 µg/mL with E. faecalis GC 4555; above 64 µg/mL with E. faecalis GC 842; 16 µg/mL with K. pneumoniae GC 4534. Moreover, the “Antimicrobial Activity (MIC)” value is above 64 µg/mL in the assay on M. morganii GC 4531; 32 µg/mL with P. aeruginosa GC 2214; 64 µg/mL in the assay with P. aeruginosa GC 4532; above 64 µg/mL in the assay on P. rettgeri GC 4530; 64 µg/mL with S. aureus GC 1131; 64 µg/mL in the assay on S. aureus GC 2216. Besides, the “Antimicrobial Activity (MIC)” value was 64 µg/mL in the assay on S. aureus GC 4536 and above 64 µg/mL in the assay on S. marcescens GC 4077.
`CC(C)C(NC(=O)NC(C(=O)NC(C(=O)NCCCNC(C(=O)O)C(O[C@@H]1O[C@H](CN)[C@@H](O)[C@H]1O)C1OC(n2ccc(=O)[nH]c2=O)C(O)C1O)C(O)C(C)C)C1CCNC(=N)N1)C(=O)O` (stereo partly drawn) [AA-896-C2, 5-O-[5-Amino-5-deoxy-β-D-ribofuranosyl]-6-[[3-[2-[2-[[(1-carboxy-2-methylpropyl)-carbamoyl]amino]-2-(hexahydro-2-iminopyrimidin-4-yl)acetamido]-3-hydroxy-4-methyl-pentanamido]propyl]amino]-1,6-dideoxy-1-(3,4-dihydro-2,4-dioxopyrimidin-1(2H)-yl)-β-D-heptofuranuronic acid]: the “Antimicrobial Activity (MIC)” value in the assay with CNS GC 4537 is above 32 µg/mL; with CNS GC 4538, above 32 µg/mL; with CNS GC 4547, above 32 µg/mL; in the assay with E. cloacae GC 3783, 16 µg/mL; with E. coli GC 2203, 16 µg/mL; with E. coli GC 3226 it was 16 µg/mL. Moreover, the “Antimicrobial Activity (MIC)” value in the assay with E. coli GC 4559 was above 32 µg/mL; in the assay on E. coli GC 4560 it was 2 µg/mL; with E. faecalis GC 242 it was above 32 µg/mL; in the assay with E. faecalis GC 4555 it was above 32 µg/mL; in the assay on E. faecalis GC 842, above 32 µg/mL; with K. pneumoniae GC 4534 it was above 32 µg/mL. Further, the “Antimicrobial Activity (MIC)” value is above 32 µg/mL with M. morganii GC 4531; 32 µg/mL in the assay on P. aeruginosa GC 2214; 32 µg/mL in the assay with P. aeruginosa GC 4532; above 32 µg/mL in the assay with P. rettgeri GC 4530; above 32 µg/mL in the assay on S. aureus GC 1131; above 32 µg/mL in the assay on S. aureus GC 2216. The “Antimicrobial Activity (MIC)” value in the assay on S. aureus GC 4536 and in the assay with S. marcescens GC 4077 was above 32 µg/mL in each case.
Regarding `CCC(C)CCCCC(=O)OC(C(C)C)C(NC(=O)C(NC(=O)NC(C(=O)O)C(C)C)C1CCNC(=N)N1)C(=O)NCCCNC(C(=O)O)C(O[C@@H]1O[C@H](CN)[C@@H](O)[C@H]1OC)C1OC(n2ccc(=O)[nH]c2=O)C(O)C1O` (stereo partly drawn) [AA-896-B3, 5-O-[5-Amino-5-deoxy-2-O-methyl-β-D-ribofuranosyl]-6-[[3-[2-[2-[[(1-carboxy-2-methyl-propyl)carbamoyl]amino]-2-(hexahydro-2-iminopyrimidin-4-yl)acetamido]-4-methyl-3-[(6-methyloctanoyl)oxy]pentanamido]propyl]amino]-1,6-dideoxy-1-(3,4-dihydro-2,4-dioxopyrimidin-1(2H)-yl)-β-D-heptofuranuronic acid], the “Antimicrobial Activity (MIC)” value with CNS GC 4537 was above 32 µg/mL; in the assay with CNS GC 4538, above 32 µg/mL; in the assay with CNS GC 4547, above 32 µg/mL; in the assay on E. cloacae GC 3783 it was 16 µg/mL; in the assay on E. coli GC 2203, above 32 µg/mL; in the assay with E. coli GC 3226 it was 32 µg/mL. Moreover, the “Antimicrobial Activity (MIC)” value was above 32 µg/mL with E. coli GC 4559; 0.06 µg/mL with E. coli GC 4560; above 32 µg/mL in the assay with E. faecalis GC 242; above 32 µg/mL in the assay with E. faecalis GC 4555; above 32 µg/mL in the assay with E. faecalis GC 842; above 32 µg/mL in the assay with K. pneumoniae GC 4534. In addition, the “Antimicrobial Activity (MIC)” value with M. morganii GC 4531, with P. aeruginosa GC 2214, in the assay on P. aeruginosa GC 4532, in the assay with P. rettgeri GC 4530, with S. aureus GC 1131 and in the assay with S. aureus GC 2216 was above 32 µg/mL each time. Moreover, the “Antimicrobial Activity (MIC)” value in the assay on S. aureus GC 4536 and in the assay with S. marcescens GC 4077 was above 32 µg/mL throughout.

The values above are taken from US7078195B2, “Antibiotics AA-896” (Wyeth Holdings Corporation, priority 2001, dated 2006).
